According to PubChem BioAssay AID1963833 (Molecular Pharmacology Branch, DTP, NCI, 2024):

System: 883617-216-R-J1-PDC complex spheroid viability
Assay: Anticancer human tumor 883617-216-R-J1-PDC patient-derived bladder carcinoma cell line growth inhibition [POLQ]
Settings: for IC50: curve of first compound; for viability, T/C: stronger effect = lower value
Protocol: Multicellular complex tumor spheroid response to Polymerase (POL) inhibitors (novobiocin, ART-558, RP6685) in combination with a variety of drugs and investigational agents in selected tumor cell lines
The POL inhibitors (novobiocin, ART-558, and RP6685) were evaluated both individually and in combination with standard of care and investigational anticancer small molecules within a complex spheroid model of solid tumors. . Complex spheroids include a stromal component modeled by human endothelial cells (HUVEC) and fibroblasts modeled by human mesenchymal stem cells (MSCs). The concentration ranges selected for each drug and investigational agent were based upon clinically achievable concentrations if the clinical Cmax of the agent was known.
Compounds. The drugs and investigational agents: novobiocin (NSC847541), ART-558 (NSC835418), RP-6685 (NSC848927), peposertib (NSC802822), ceralasertib (NSC780249), elimusertib (NSC800525), camonsertib (NSC841442), AZD-1390 (NSC803789), olaparib (NSC753686), talazoparib (NSC767125), rucaparib (NSC756644), sotorasib (NSC818433), MRTX-1133 (NSC836407), SN-38 (NSC673596), topotecan (NSC609699), epotoside (NSC141540), doxorubicin (NSC123127), gemcitabine (NSC613327), 5-fluorouracil (NSC19893), paclitaxel (NSC125973), vemurafenib (NSC761431), MSA-2 (NSC828583), SN-011 (NSC837082), adavosertib (NSC754352), prexasertib (NSC758257), carboplatin (NSC241240) and oxaliplatin (NSC266046), were obtained from the National Cancer Institute (NCI) Developmental Therapeutics Program Chemical Repository (21). The FDA-approved anticancer drug set is available from the Developmental Therapeutics Program at https://dtp.cancer.gov/organization/dscb/obtaining/. […] The stock solutions were prepared in dimethyl sulfoxide (DMSO, Sigma-Aldrich, St. Louis, MO, cat. D2650), except for the platinum compounds which were prepared in saline (Quality Biological, Gaithersburg, MD, cat. 114-055-101), at 800-fold the tested concentration and stored at -70 degrees C prior to their use. All drugs and investigational agents were tested over a range starting from a high concentration at or near the clinical Cmax and decreasing in half-log increments. If the clinical Cmax for an agent had not been determined, the highest concentration tested was 10 microM, except for SN-38, which was tested at a high concentration of 1 microM.
Cell Culture. All cells were maintained in an incubator at 37 degrees C and 5% CO2 with 95% humidity. The PDC lines were cultured according to standard operating procedures established by the NCI PDMR (https://pdmr.cancer.gov). Table 3 of the manuscript, lists the cell lines along with the number of the three cell types plated to form the mct-spheroids and media for tumor cell growth. After thawing, all PDC lines, except 997537-175-T-J1-PDC and 415267-285-R-J2-PDC, were cultured in Matrigel-coated flasks prepared with a working solution of 1X Ham's F-12 nutrient mix, without supplementation (Thermo Fisher Scientific, cat. 11765054), 100 U/mL penicillin-streptomycin (Thermo Fisher Scientific, cat. 15140122), and 2.5% Matrigel (Corning Inc., Corning, NY, cat. 354248) for the first three passages. The two PDC lines 997537-175-T-J1-PDC and 415267-285-R-J2-PDC were cultured on uncoated flasks. The 857933-349-R-J2-PDC line was cultured in 6C/Colon 1B media containing advanced DMEM/F-12 (Thermo Fisher Scientific, cat. 12634028), 10 mM HEPES (Thermo Fisher Scientific, cat. 15630080), 1X GlutaMAX supplement (Thermo Fisher Scientific, cat. 35050061), 0.1 mg/mL primocin (InvivoGen, San Diego, CA, cat. ant-pm-2), 10% defined fetal bovine serum, heat inactivated (HyClone Laboratories Inc., Logan, UT, cat. SH30070.03HI), 50% L-WRN conditioned media (ATCC, cat. CRL-3276), 1.25 mM N-Acetyl-L-cysteine (Sigma-Aldrich, cat. A9165), 10 mM nicotinamide (Sigma-Aldrich, cat. N0636), 1X B-27 supplement (Thermo Fisher Scientific, cat. 17504044), 1X N-2 supplement (Thermo Fisher Scientific, cat. […]
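Further: spheroids exposed to compounds for seven days before readout.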
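Wherever viability, T/C is given: 100% = DMSO vehicle control viability.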

CCCS(=O)(=O)Nc1ccc(F)c(C(=O)c2c[nH]c3ncc(-c4ccc(Cl)cc4)cc23)c1F + Nc1ccc(C#CCN(C(=O)Cc2ncc(C(F)(F)F)cc2C(F)(F)F)c2ccc(F)cc2)nn1
IC50 (second compound 0.0316 µM): 9.41 µM
IC50 (second compound 0.1 µM): 8.35 µM
IC50 (second compound 0.316 µM): > 10 µM
IC50 (second compound 1 µM): > 10 µM
IC50 (second compound 3.16 µM): > 10 µM
IC50 (second compound 10 µM): > 10 µM
viability, T/C (second compound 0.0316 µM, first compound 0.0316 µM): 91.8%
viability, T/C (second compound 0.0316 µM, first compound 0.1 µM): 104%
viability, T/C (second compound 0.0316 µM, first compound 0.316 µM): 91.6%
viability, T/C (second compound 0.0316 µM, first compound 1 µM): 102%
viability, T/C (second compound 0.0316 µM, first compound 3.16 µM): 106%
viability, T/C (second compound 0.0316 µM, first compound 10 µM): 47.2%
viability, T/C (second compound 0.1 µM, first compound 0.0316 µM): 98.2%
viability, T/C (second compound 0.1 µM, first compound 0.1 µM): 86%
viability, T/C (second compound 0.1 µM, first compound 0.316 µM): 109%
viability, T/C (second compound 0.1 µM, first compound 1 µM): 112%
viability, T/C (second compound 0.1 µM, first compound 3.16 µM): 85%
viability, T/C (second compound 0.1 µM, first compound 10 µM): 43.5%
viability, T/C (second compound 0.316 µM, first compound 0.0316 µM): 104%
viability, T/C (second compound 0.316 µM, first compound 0.1 µM): 92.8%
viability, T/C (second compound 0.316 µM, first compound 0.316 µM): 103%
viability, T/C (second compound 0.316 µM, first compound 1 µM): 111%
viability, T/C (second compound 0.316 µM, first compound 3.16 µM): 91.7%
viability, T/C (second compound 0.316 µM, first compound 10 µM): 54.5%
viability, T/C (second compound 1 µM, first compound 0.0316 µM): 111%
viability, T/C (second compound 1 µM, first compound 0.1 µM): 103%
viability, T/C (second compound 1 µM, first compound 0.316 µM): 89.2%
viability, T/C (second compound 1 µM, first compound 1 µM): 92.4%
viability, T/C (second compound 1 µM, first compound 3.16 µM): 88.7%
viability, T/C (second compound 1 µM, first compound 10 µM): 50.7%
viability, T/C (second compound 3.16 µM, first compound 0.0316 µM): 111%
viability, T/C (second compound 3.16 µM, first compound 0.1 µM): 102%
viability, T/C (second compound 3.16 µM, first compound 0.316 µM): 110%
viability, T/C (second compound 3.16 µM, first compound 1 µM): 98.3%
viability, T/C (second compound 3.16 µM, first compound 3.16 µM): 99.6%
viability, T/C (second compound 3.16 µM, first compound 10 µM): 59.7%
viability, T/C (second compound 10 µM, first compound 0.0316 µM): 106%
viability, T/C (second compound 10 µM, first compound 0.1 µM): 107%
viability, T/C (second compound 10 µM, first compound 0.316 µM): 118%
viability, T/C (second compound 10 µM, first compound 1 µM): 125%
viability, T/C (second compound 10 µM, first compound 3.16 µM): 95.2%
viability, T/C (second compound 10 µM, first compound 10 µM): 57.6%
